Laboratory results reported in patent EP4722207A1, “OXOISOINDOLINYL-SUBSTITUTED TETRAHYDROPYRIMIDINEDIONE DERIVATIVE AND USE THEREOF” (Gluetacs Therapeutics (Shanghai) Co., Ltd., priority 2023, dated 2024).

Key:
Assay type in all cases: cell-based
Details in all cases: compounds at 50 nM and 500 nM, 24 hours
WEE1 = biological target: T1, WEE1 (Homo sapiens, UniProt P30291+Q96SW2); experiment: Western-blot assay, substrate protein degradation in hPBMCs: WEE1
T1 construct: effects of the compounds of the present disclosure on the expression of target proteins in cells; endogenous in cells; host or cells: human PBMCs (hPBMCs)

IKZF1 = biological target: T2, IKZF1 (Homo sapiens, UniProt Q13422+Q96SW2); experiment: Western-blot assay, substrate protein degradation in hPBMCs: IKZF1
T2 construct: effects of the compounds of the present disclosure on the expression of target proteins in cells; endogenous in cells; host or cells: human PBMCs (hPBMCs)

IKZF2 = biological target: T3, IKZF2 (Homo sapiens, UniProt Q96SW2+Q9UKS7); experiment: Western-blot assay, substrate protein degradation in hPBMCs: IKZF2
T3 construct: effects of the compounds of the present disclosure on the expression of target proteins in cells; endogenous in cells; host or cells: human PBMCs (hPBMCs)

IKZF3 = biological target: T4, IKZF3 (Homo sapiens, UniProt Q96SW2+Q9UKT9); experiment: Western-blot assay, substrate protein degradation in hPBMCs: IKZF3
T4 construct: effects of the compounds of the present disclosure on the expression of target proteins in cells; endogenous in cells; host or cells: human PBMCs (hPBMCs)

CK1α = biological target: T5, CK1α (Homo sapiens, UniProt P48729+Q96SW2); experiment: Western-blot assay, substrate protein degradation in hPBMCs: CK1α
T5 construct: effects of the compounds of the present disclosure on the expression of target proteins in cells; endogenous in cells; host or cells: human PBMCs (hPBMCs)

GSPT1 = biological target: T6, GSPT1 (Homo sapiens, UniProt P15170+Q96SW2); experiment: Western-blot assay, substrate protein degradation in hPBMCs: GSPT1
T6 construct: effects of the compounds of the present disclosure on the expression of target proteins in cells; endogenous in cells; host or cells: human PBMCs (hPBMCs)
T6 sequence (P15170 whole entry): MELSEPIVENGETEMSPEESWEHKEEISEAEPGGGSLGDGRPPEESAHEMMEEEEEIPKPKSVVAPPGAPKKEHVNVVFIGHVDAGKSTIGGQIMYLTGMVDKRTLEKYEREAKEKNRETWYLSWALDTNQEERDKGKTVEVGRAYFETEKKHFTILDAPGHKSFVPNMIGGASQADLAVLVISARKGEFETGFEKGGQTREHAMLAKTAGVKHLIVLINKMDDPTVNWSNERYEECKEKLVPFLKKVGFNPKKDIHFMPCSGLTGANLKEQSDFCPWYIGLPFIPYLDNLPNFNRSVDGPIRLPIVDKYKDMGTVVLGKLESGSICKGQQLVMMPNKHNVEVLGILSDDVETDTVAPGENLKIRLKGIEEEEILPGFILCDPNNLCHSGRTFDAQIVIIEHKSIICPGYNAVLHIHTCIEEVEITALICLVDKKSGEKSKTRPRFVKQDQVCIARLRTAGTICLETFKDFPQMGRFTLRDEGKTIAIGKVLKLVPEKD
T6 sequence (Q96SW2 whole entry): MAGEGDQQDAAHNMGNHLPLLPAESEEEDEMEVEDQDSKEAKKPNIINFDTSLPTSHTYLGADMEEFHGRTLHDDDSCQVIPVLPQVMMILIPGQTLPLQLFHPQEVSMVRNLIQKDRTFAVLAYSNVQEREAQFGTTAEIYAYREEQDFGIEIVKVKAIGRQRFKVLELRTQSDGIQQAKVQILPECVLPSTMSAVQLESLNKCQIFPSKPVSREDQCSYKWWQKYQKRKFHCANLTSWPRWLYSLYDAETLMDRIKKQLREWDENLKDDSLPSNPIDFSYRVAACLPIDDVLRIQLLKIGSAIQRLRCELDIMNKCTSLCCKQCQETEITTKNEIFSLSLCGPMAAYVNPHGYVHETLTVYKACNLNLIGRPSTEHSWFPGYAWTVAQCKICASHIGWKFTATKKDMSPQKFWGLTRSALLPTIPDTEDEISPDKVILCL
T6 sequence (Q16531 whole entry partner): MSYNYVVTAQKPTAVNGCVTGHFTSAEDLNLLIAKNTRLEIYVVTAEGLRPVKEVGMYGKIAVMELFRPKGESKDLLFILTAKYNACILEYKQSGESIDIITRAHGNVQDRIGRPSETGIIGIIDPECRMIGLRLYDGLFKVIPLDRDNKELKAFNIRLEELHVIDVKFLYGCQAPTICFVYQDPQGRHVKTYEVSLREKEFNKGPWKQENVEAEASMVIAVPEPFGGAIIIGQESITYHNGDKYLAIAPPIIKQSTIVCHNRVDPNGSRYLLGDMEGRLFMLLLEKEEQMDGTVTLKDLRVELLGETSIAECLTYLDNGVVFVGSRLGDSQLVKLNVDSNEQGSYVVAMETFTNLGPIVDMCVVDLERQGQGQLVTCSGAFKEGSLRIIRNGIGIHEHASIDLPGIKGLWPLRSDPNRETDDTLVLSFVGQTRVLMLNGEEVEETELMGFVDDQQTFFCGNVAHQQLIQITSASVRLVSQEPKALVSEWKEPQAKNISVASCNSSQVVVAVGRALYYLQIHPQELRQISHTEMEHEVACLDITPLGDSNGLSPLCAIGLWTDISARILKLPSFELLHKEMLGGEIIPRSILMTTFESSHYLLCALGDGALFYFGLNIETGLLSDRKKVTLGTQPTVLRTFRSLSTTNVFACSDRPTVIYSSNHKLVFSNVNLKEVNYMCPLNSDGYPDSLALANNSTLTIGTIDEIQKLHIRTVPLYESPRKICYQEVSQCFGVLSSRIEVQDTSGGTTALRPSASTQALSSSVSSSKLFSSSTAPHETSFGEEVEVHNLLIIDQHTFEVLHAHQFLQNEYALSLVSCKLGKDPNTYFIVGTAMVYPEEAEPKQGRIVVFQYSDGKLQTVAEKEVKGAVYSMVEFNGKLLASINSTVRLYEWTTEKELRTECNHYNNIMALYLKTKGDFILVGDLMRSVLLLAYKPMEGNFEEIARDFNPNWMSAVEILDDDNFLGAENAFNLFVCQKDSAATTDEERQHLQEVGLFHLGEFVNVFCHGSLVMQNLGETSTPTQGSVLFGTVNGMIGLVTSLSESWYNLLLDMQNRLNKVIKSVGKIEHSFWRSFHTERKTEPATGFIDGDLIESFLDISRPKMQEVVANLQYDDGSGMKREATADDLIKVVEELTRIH

T2 sequence (Q13422 whole entry): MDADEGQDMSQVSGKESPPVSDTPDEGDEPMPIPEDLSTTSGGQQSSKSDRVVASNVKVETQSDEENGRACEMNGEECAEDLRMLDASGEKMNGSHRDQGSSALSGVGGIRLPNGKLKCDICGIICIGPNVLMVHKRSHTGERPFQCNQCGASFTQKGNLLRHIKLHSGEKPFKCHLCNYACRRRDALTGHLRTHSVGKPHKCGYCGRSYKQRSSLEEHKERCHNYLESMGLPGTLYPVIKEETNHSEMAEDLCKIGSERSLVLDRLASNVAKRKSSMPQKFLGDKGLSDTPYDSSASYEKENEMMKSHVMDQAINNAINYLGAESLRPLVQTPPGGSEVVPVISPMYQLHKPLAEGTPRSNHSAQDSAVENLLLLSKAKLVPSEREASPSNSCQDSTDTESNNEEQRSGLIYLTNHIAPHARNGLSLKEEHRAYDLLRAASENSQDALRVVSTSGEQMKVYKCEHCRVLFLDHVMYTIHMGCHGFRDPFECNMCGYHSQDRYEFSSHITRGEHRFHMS
T2 sequence (Q96SW2 whole entry): as the sequence (Q96SW2 whole entry) above
T2 sequence (Q16531 whole entry partner): as the sequence (Q16531 whole entry partner) above
T4 sequence (Q9UKT9 whole entry): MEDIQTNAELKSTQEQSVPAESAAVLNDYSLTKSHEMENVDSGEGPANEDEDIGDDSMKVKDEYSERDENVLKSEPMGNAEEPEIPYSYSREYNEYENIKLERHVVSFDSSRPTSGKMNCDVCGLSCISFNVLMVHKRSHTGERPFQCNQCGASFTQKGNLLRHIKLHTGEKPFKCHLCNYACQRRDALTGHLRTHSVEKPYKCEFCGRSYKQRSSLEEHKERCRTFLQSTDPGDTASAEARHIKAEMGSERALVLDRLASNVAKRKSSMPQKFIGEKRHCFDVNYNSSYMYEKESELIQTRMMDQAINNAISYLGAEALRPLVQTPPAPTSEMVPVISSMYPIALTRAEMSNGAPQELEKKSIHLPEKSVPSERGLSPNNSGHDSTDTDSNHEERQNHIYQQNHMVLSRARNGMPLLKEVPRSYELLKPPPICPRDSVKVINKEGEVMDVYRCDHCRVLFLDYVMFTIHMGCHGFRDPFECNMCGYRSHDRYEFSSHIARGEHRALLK
T4 sequence (Q96SW2 whole entry): as the sequence (Q96SW2 whole entry) above
T4 sequence (Q16531 whole entry partner): as the sequence (Q16531 whole entry partner) above
T1 sequence (P30291 whole entry): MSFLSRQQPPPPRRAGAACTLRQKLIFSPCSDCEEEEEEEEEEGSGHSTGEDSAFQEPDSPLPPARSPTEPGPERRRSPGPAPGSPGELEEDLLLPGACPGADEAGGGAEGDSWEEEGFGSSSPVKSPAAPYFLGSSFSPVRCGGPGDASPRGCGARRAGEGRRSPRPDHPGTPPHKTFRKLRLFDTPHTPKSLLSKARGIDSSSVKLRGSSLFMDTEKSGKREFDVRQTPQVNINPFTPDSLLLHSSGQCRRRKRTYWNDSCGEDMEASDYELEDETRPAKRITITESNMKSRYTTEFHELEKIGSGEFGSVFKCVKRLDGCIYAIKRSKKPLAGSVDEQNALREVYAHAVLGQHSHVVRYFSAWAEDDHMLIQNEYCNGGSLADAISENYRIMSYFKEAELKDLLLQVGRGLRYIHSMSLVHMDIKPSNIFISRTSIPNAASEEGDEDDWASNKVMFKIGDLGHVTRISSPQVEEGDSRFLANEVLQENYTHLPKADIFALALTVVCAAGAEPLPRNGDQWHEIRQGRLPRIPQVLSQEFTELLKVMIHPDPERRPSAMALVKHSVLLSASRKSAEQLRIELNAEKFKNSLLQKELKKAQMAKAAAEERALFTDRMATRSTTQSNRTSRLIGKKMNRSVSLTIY
T1 sequence (Q96SW2 whole entry): as the sequence (Q96SW2 whole entry) above
T1 sequence (Q16531 whole entry partner): as the sequence (Q16531 whole entry partner) above
T3 sequence (Q9UKS7 whole entry): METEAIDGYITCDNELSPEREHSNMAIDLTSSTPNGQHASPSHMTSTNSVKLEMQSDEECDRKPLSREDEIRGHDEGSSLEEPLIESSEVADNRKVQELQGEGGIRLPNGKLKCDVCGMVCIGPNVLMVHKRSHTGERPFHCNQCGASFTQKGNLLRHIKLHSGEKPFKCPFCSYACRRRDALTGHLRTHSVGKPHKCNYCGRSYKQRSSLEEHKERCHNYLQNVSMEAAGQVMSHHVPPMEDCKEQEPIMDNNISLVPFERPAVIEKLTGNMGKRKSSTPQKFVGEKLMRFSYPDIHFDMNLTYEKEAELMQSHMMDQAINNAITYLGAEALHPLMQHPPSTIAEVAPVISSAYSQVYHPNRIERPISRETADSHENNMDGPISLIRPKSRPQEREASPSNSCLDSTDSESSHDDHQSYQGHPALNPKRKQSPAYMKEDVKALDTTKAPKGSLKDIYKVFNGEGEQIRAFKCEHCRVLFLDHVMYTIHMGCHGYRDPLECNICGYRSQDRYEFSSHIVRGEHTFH
T3 sequence (Q96SW2 whole entry): as the sequence (Q96SW2 whole entry) above
T3 sequence (Q16531 whole entry partner): as the sequence (Q16531 whole entry partner) above

O=C1CCN(N2Cc3cc(CN4CCC(c5ccccc5F)CC4)ccc3C2=O)C(=O)N1 [GT-06889, 1-(5-((4-(2-fluorophenyl)piperidin-1-yl)methyl)-1-oxoisoindolin-2-yl)dihydropyrimidine-2,4(1H,3H)-dione]
WEE1 substrate protein remaining % (WEE1): A ("A" is defined as 0% ≤ substrate protein remaining % ≤ 80%) | IKZF1 substrate protein remaining % (IKZF1): B ("B" is defined as 80%< substrate protein remaining %≤ 100%) | IKZF2 substrate protein remaining % (IKZF2): A ("A" is defined as 0% ≤ substrate protein remaining % ≤ 80%) | IKZF3 substrate protein remaining % (IKZF3): B ("B" is defined as 80%< substrate protein remaining %≤ 100%) | CK1α substrate protein remaining % (CK1α): B ("B" is defined as 80%< substrate protein remaining %≤ 100%) | GSPT1 substrate protein remaining % (GSPT1): A ("A" is defined as 0% ≤ substrate protein remaining % ≤ 80%)

O=C1CCN(N2Cc3cc(CN4CCC(c5ccc(F)cc5)CC4)ccc3C2=O)C(=O)N1 [GT-06890, 1-(5-((4-(4-fluorophenyl)piperidin-1-yl)methyl)-1-oxoisoindolin-2-yl)dihydropyrimidine-2,4(1H,3H)-dione]
WEE1 substrate protein remaining % (WEE1): A ("A" is defined as 0% ≤ substrate protein remaining % ≤ 80%) | IKZF1 substrate protein remaining % (IKZF1): B ("B" is defined as 80%< substrate protein remaining %≤ 100%) | IKZF2 substrate protein remaining % (IKZF2): B ("B" is defined as 80%< substrate protein remaining %≤ 100%) | IKZF3 substrate protein remaining % (IKZF3): B ("B" is defined as 80%< substrate protein remaining %≤ 100%) | CK1α substrate protein remaining % (CK1α): B ("B" is defined as 80%< substrate protein remaining %≤ 100%) | GSPT1 substrate protein remaining % (GSPT1): A ("A" is defined as 0% ≤ substrate protein remaining % ≤ 80%)

O=C1CCN(N2Cc3cc(CN4CCC(c5ccccc5C(F)(F)F)CC4)ccc3C2=O)C(=O)N1 [GT-06891, 1-(1-oxo-5-((4-(2-(trifluoromethyl)phenyl)piperidin-1-yl)methyl)isoindolin-2-yl)dihydropyrimidine-2,4(1H,3H)-dione]
WEE1 substrate protein remaining % (WEE1): A ("A" is defined as 0% ≤ substrate protein remaining % ≤ 80%) | IKZF1 substrate protein remaining % (IKZF1): B ("B" is defined as 80%< substrate protein remaining %≤ 100%) | IKZF2 substrate protein remaining % (IKZF2): A ("A" is defined as 0% ≤ substrate protein remaining % ≤ 80%) | IKZF3 substrate protein remaining % (IKZF3): B ("B" is defined as 80%< substrate protein remaining %≤ 100%) | CK1α substrate protein remaining % (CK1α): B ("B" is defined as 80%< substrate protein remaining %≤ 100%) | GSPT1 substrate protein remaining % (GSPT1): A ("A" is defined as 0% ≤ substrate protein remaining % ≤ 80%)

O=C1CCN(N2C(=O)c3ccc(CN4CCC(c5cccc(F)c5Cl)CC4)cc3C2=O)C(=O)N1 [GT-06895, 5-((4-(2-chloro-3-fluorophenyl)piperidin-1-yl)methyl)-2-(2,4-dioxotetrahydropyrimidin-1(2H)-yl)isoindoline-1,3-dione]
WEE1 substrate protein remaining % (WEE1): B ("B" is defined as 80%< substrate protein remaining %≤ 100%) | IKZF1 substrate protein remaining % (IKZF1): A ("A" is defined as 0% ≤ substrate protein remaining % ≤ 80%) | IKZF2 substrate protein remaining % (IKZF2): B ("B" is defined as 80%< substrate protein remaining %≤ 100%) | IKZF3 substrate protein remaining % (IKZF3): B ("B" is defined as 80%< substrate protein remaining %≤ 100%) | CK1α substrate protein remaining % (CK1α): B ("B" is defined as 80%< substrate protein remaining %≤ 100%) | GSPT1 substrate protein remaining % (GSPT1): B ("B" is defined as 80%< substrate protein remaining %≤ 100%)

O=C1CCN(N2C(=O)c3ccc(CN4CC=C(c5cccc(F)c5Cl)CC4)cc3C2=O)C(=O)N1 [GT-06896, 5-((4-(2-chloro-3-fluorophenyl)-3,6-dihydropyridin-1(2H)-yl)methyl)-2-(2,4-dioxotetrahydropyrimidin-1(2H)-yl)isoindoline-1,3-dione]
WEE1 substrate protein remaining % (WEE1): B ("B" is defined as 80%< substrate protein remaining %≤ 100%) | IKZF1 substrate protein remaining % (IKZF1): A ("A" is defined as 0% ≤ substrate protein remaining % ≤ 80%) | IKZF2 substrate protein remaining % (IKZF2): B ("B" is defined as 80%< substrate protein remaining %≤ 100%) | IKZF3 substrate protein remaining % (IKZF3): B ("B" is defined as 80%< substrate protein remaining %≤ 100%) | CK1α substrate protein remaining % (CK1α): B ("B" is defined as 80%< substrate protein remaining %≤ 100%) | GSPT1 substrate protein remaining % (GSPT1): B ("B" is defined as 80%< substrate protein remaining %≤ 100%)

O=C1CCN(N2C(=O)c3ccc(CN4CCN(c5ccc(F)cn5)CC4)cc3C2=O)C(=O)N1 [GT-06965, 2-(2,4-dioxotetrahydropyrimidin-1(2H)-yl)-5-((4-(5-fluoropyridin-2-yl)piperazin-1-yl)methyl)isoindoline-1,3-dione]
WEE1 substrate protein remaining % (WEE1): B ("B" is defined as 80%< substrate protein remaining %≤ 100%) | IKZF1 substrate protein remaining % (IKZF1): B ("B" is defined as 80%< substrate protein remaining %≤ 100%) | IKZF2 substrate protein remaining % (IKZF2): A ("A" is defined as 0% ≤ substrate protein remaining % ≤ 80%) | IKZF3 substrate protein remaining % (IKZF3): B ("B" is defined as 80%< substrate protein remaining %≤ 100%) | CK1α substrate protein remaining % (CK1α): B ("B" is defined as 80%< substrate protein remaining %≤ 100%) | GSPT1 substrate protein remaining % (GSPT1): B ("B" is defined as 80%< substrate protein remaining %≤ 100%)

O=C1CCN(N2C(=O)c3ccc(CN4CCN(c5ccc(C(F)(F)F)cn5)CC4)cc3C2=O)C(=O)N1 [GT-06968, 2-(2,4-dioxotetrahydropyrimidin-1(2H)-yl)-5-((4-(5-(trifluoromethyl)pyridin-2-yl)piperazin-1-yl)methyl)isoindoline-1,3-dione]
WEE1 substrate protein remaining % (WEE1): A ("A" is defined as 0% ≤ substrate protein remaining % ≤ 80%) | IKZF1 substrate protein remaining % (IKZF1): B ("B" is defined as 80%< substrate protein remaining %≤ 100%) | IKZF2 substrate protein remaining % (IKZF2): A ("A" is defined as 0% ≤ substrate protein remaining % ≤ 80%) | IKZF3 substrate protein remaining % (IKZF3): B ("B" is defined as 80%< substrate protein remaining %≤ 100%) | CK1α substrate protein remaining % (CK1α): B ("B" is defined as 80%< substrate protein remaining %≤ 100%) | GSPT1 substrate protein remaining % (GSPT1): B ("B" is defined as 80%< substrate protein remaining %≤ 100%)

O=C1CCN(N2C(=O)c3ccc(CN4CCN(c5ncc(Cl)cc5Cl)CC4)cc3C2=O)C(=O)N1 [GT-06969, 5-((4-(3,5-dichloropyridin-2-yl)piperazin-1-yl)methyl)-2-(2,4-dioxotetrahydropyrimidin-1(2H)-yl)isoindoline-1,3-dione]
WEE1 substrate protein remaining % (WEE1): A ("A" is defined as 0% ≤ substrate protein remaining % ≤ 80%) | IKZF1 substrate protein remaining % (IKZF1): B ("B" is defined as 80%< substrate protein remaining %≤ 100%) | IKZF2 substrate protein remaining % (IKZF2): A ("A" is defined as 0% ≤ substrate protein remaining % ≤ 80%) | IKZF3 substrate protein remaining % (IKZF3): B ("B" is defined as 80%< substrate protein remaining %≤ 100%) | CK1α substrate protein remaining % (CK1α): B ("B" is defined as 80%< substrate protein remaining %≤ 100%) | GSPT1 substrate protein remaining % (GSPT1): B ("B" is defined as 80%< substrate protein remaining %≤ 100%)

O=C1CCN(N2C(=O)c3ccc(CN4CCN(c5nccc(I)c5F)CC4)cc3C2=O)C(=O)N1 [GT-06970, 2-(2,4-dioxotetrahydropyrimidin-1(2H)-yl)-5-((4-(3-fluoro-4-iodopyridin-2-yl)piperazin-1-yl)methyl)isoindoline-1,3-dione]
WEE1 substrate protein remaining % (WEE1): A ("A" is defined as 0% ≤ substrate protein remaining % ≤ 80%) | IKZF1 substrate protein remaining % (IKZF1): B ("B" is defined as 80%< substrate protein remaining %≤ 100%) | IKZF2 substrate protein remaining % (IKZF2): A ("A" is defined as 0% ≤ substrate protein remaining % ≤ 80%) | IKZF3 substrate protein remaining % (IKZF3): B ("B" is defined as 80%< substrate protein remaining %≤ 100%) | CK1α substrate protein remaining % (CK1α): B ("B" is defined as 80%< substrate protein remaining %≤ 100%) | GSPT1 substrate protein remaining % (GSPT1): B ("B" is defined as 80%< substrate protein remaining %≤ 100%)
